According to publication PMC11205865, “Unlocking the distinctive enzymatic functions of the early plant biomass deconstructive genes in a brown rot fungus by cell-free protein expression” (Applied and Environmental Microbiology, 2024):

Legend:
[1] = tested on: T1, benzoquinone reductase (BQR), Pospl1|124517; experiment: NADPH consumption during […],6-DMBQ reduction; assay type: cell-based, Rhodonia placenta; conditions: 30–570 µM 2,6-DMBQ; NADPH co-substrate; FMN cofactor; crude cell-free mixture
T1 construct: synthetic CDS in pEU-E01-MCS, wheat germ cell-free expression, crude translation mixture (sample S2), predicted 25 kDa, intracellular, no tag stated

[2] = tested on: T2, heme-thiolate peroxidase (HTP), Pospl1|61079; experiment: ABTS oxidation with H2O2; assay type: cell-based, Rhodonia placenta; conditions: 50–900 µM ABTS; H2O2 as oxidant; crude cell-free mixture with hemin and nanodiscs
T2 construct: synthetic CDS in pEU-E01-MCS, wheat germ cell-free expression with nanodiscs and hemin (S1b), crude mixture, predicted 32 kDa
Method: ABTS oxidation with H2O2 on heme-thiolate peroxidase (HTP), Pospl1|61079 | Km and Vmax values for enzymes HTP, ABF, BQR, and FRD were determined

| Km [1] | SMILES | Km [2] |
| --- | --- | --- |
| 214 µM | COC1=CC(=O)C=C(OC)C1=O [2,6-DMBQ, 2,6-dimethoxy-1,4-benzoquinone] |  |
|  | CCn1c(=NN=c2sc3cc(S(=O)(=O)O)ccc3n2CC)sc2cc(S(=O)(=O)O)ccc21 [ABTS] | 142 µM |
